From patent US12459951B2, “Compounds that interact with RAS superfamily proteins for treatment of cancers, inflammatory diseases, rasopathies, and fibrotic disease” (SHY Therapeutics, LLC, priority 2022, dated 2025)

Legend:
[1] = system: Smad2/Smad3 phosphorylation; experiment: Phospho-Smad2/3 Inhibition Assay (western blot), Panc-1; type: cell-based, human; details: at 10 μM, Panc-1 pancreatic cancer cell line; starred symbols = activation
How it was run: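 Western blotting of lysates (15-50 μg protein) read phosphorylation of Smad2 Ser465/467 and Smad3 Ser423/425. Before lysis, Panc-1 cells got 1 h of 10 ng/ml TGF-b1 following 3 h compound exposure at 37° C (10 μM final, or serial dilutions for IC50, 0.3% DMSO) after overnight 0.5% FBS starvation.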

[2] = system: IL6; experiment: IL-6 Quantification Assay (ELISA), LPS-stimulated RAW 264.7; type: cell-based; design: inhibition: dose or concentration left out as unconfirmed; details: Mus musculus, RAW264.7; read-out: IL-6: % inh.
[3] = system: KRas Q61H mutant; experiment: Ras GTP Binding Domain Inhibition Assay (Ras Superfamily Assay); details: 20 μM compound; for KRas Q61H mutant + SOS: % inh.: with SOS; for KRas Q61H mutant: % inh.: without SOS
How it was run: (§1)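 His-tagged GTPases immobilised on nickel-coated plates, pre-incubated with compound (20 μM single point, or serial dilution for IC50) 3 h at room temperature, with or without 10-30 μg/mL Sos (residues 556-1049) in the final hour. Bound Cy3- or Cy5-GTP (100 nM, 45 min) measured by fluorescence after washing.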

[4] = biological target: T1, Rac-1 (Homo sapiens, UniProt P63000); experiment: as above; details: read-out: Rac-1: % inh.
T1 construct: made in house
How it was run: as §1

[5] = system: KRas G12C mutant; experiment: as above; details: 20 μM compound; for KRas G12C mutant + SOS: % inh.: with SOS; for KRas G12C mutant: % inh.: without SOS
How it was run: as §1

SMILES	% inh of Smad2/3 phosphorylation in Panc-1 [1]	inhibition [2]	KRas Q61H mutant + SOS: % inh. [3]	KRas Q61H mutant: % inh. [3]	inhibition at 20 µM [4]	KRas G12C mutant + SOS: % inh. [5]	KRas G12C mutant: % inh. [5]
COCC1CCN(c2nc(-c3ccccn3)nn3cc(-c4ccn(C(C)C)n4)c(-c4ccccc4)c23)C1 (racemic) [Compound 25, rac 6-(1-Isopropyl-1H-pyrazol-3-yl)-4-(3-(methoxymethyl)pyrrolidin-1-yl)-5-phenyl-2-(pyridin-2-yl)pyrrolo[2,1-f][1,2,4]triazine]	0 (0 = 0% inhibition)	1 to 24%	A (A = 1-25% inhibition)	A (A = 1-25% inhibition)	1 to 25%	A (A = 1-25% inhibition)	A (A = 1-25% inhibition)
COc1cccc(-c2cn3nc(-c4nccn4C)nc(N[C@@H]4CC[C@@H](OC)C4)c3c2-c2ccccc2)c1F (racemic) [Compound 43, rac 6-(2-Fluoro-3-methoxyphenyl)-N-((1R,3R)-3-methoxycyclopentyl)-2-(1-methyl-1H-imidazol-2-yl)-5-phenylpyrrolo[2,1-f][1,2,4]triazin-4-amine]	D (D = 76-100% inhibition)	25 to 49%	B (B = 26-49% inhibition)	B (B = 26-49% inhibition)	1 to 25%	0 (0 = 0% inhibition)	0 (0 = 0% inhibition)
COc1cc(Nc2nc(-c3nccn3C)nn3cc(-c4cccc(OC)n4)c(C)c23)ncn1 [Compound 65, 6-(6-Methoxypyridin-2-yl)-N-(6-methoxypyrimidin-4-yl)-5-methyl-2-(1-methyl-1H-imidazol-2-yl)pyrrolo[2,1-f][1,2,4]triazin-4-amine]	A* (A* = 1-25% activation)	1 to 24%	C (C = 50-75% inhibition)	C (C = 50-75% inhibition)	76 to 100%	A (A = 1-25% inhibition)	C (C = 50-75% inhibition)
COc1cccc(-c2cn3nc(-c4nccn4C)nc(N[C@@H]4CC[C@@H](OC)C4)c3c2-c2ccccn2)c1F (racemic) [Compound 46, rac 6-(2-Fluoro-3-methoxyphenyl)-N-((1R,3R)-3-methoxycyclopentyl)-2-(1-methyl-1H-imidazol-2-yl)-5-(pyridin-2-yl)pyrrolo[2,1-f][1,2,4]triazin-4-amine]	0 (0 = 0% inhibition)	75 to 100%	D (D = 76-100% inhibition)	D (D = 76-100% inhibition)	50 to 75%	A (A = 1-25% inhibition)	B (B = 26-49% inhibition)
Cc1c(-c2ccn(C(C)C)n2)cn2nc(-c3nccn3C)nc(Nc3cnccn3)c12 [Compound 62, 6-(1-Isopropyl-1H-pyrazol-3-yl)-5-methyl-2-(1-methyl-1H-imidazol-2-yl)-N-(pyrazin-2-yl)pyrrolo[2,1-f][1,2,4]triazin-4-amine]	A* (A* = 1-25% activation)	25 to 49%	A (A = 1-25% inhibition)	A (A = 1-25% inhibition)	50 to 75%	0 (0 = 0% inhibition)	A (A = 1-25% inhibition)
Cc1c(-c2ccn(C(C)C)n2)cn2nc(-c3nccn3C)nc(Nc3ccncn3)c12 [Compound 55, 6-(1-Isopropyl-1H-pyrazol-3-yl)-5-methyl-2-(1-methyl-1H-imidazol-2-yl)-N-(pyrimidin-4-yl)pyrrolo[2,1-f][1,2,4]triazin-4-amine]	D (D = 76-100% inhibition)	1 to 24%	D (D = 76-100% inhibition)	D (D = 76-100% inhibition)	76 to 100%	C (C = 50-75% inhibition)	B (B = 26-49% inhibition)
COc1ccc(-c2cn3nc(-c4nccn4C)nc(Nc4cc(OC)ncn4)c3c2C)cn1 [Compound 66, 6-(6-Methoxypyridin-3-yl)-N-(6-methoxypyrimidin-4-yl)-5-methyl-2-(1-methyl-1H-imidazol-2-yl)pyrrolo[2,1-f][1,2,4]triazin-4-amine]	A* (A* = 1-25% activation)	1 to 24%	D (D = 76-100% inhibition)	D (D = 76-100% inhibition)	76 to 100%	C (C = 50-75% inhibition)	D (D = 76-100% inhibition)
COc1cccc(-c2cn3nc(-c4nccn4C)nc(N[C@H]4C[C@H](OC)C4)c3c2-c2ccccc2)c1Cl [Compound 32, 6-(2-Chloro-3-methoxyphenyl)-N-((1r,3r)-3-methoxycyclobutyl)-2-(1-methyl-1H-imidazol-2-yl)-5-phenylpyrrolo[2,1-f][1,2,4]triazin-4-amine]	D (D = 76-100% inhibition)	75 to 100%	A (A = 1-25% inhibition)	A (A = 1-25% inhibition)	0%	0 (0 = 0% inhibition)	0 (0 = 0% inhibition)
COc1cccc(Nc2nc(-c3nccn3C)nn3ccc(-c4ccccc4)c23)n1 [Compound 40, N-(6-Methoxypyridin-2-yl)-2-(1-methyl-1H-imidazol-2-yl)-5-phenylpyrrolo[2,1-f][1,2,4]triazin-4-amine]	B (B = 26-45% inhibition)	75 to 100%	A (A = 1-25% inhibition)	0 (0 = 0% inhibition)	1 to 25%	0 (0 = 0% inhibition)	0 (0 = 0% inhibition)
COc1cccc(Nc2nc(-c3nccn3C)nn3cc(-c4ccn(C(C)C)n4)c(-c4ccccc4)c23)n1 [Compound 23, 6-(1-Isopropyl-1H-pyrazol-3-yl)-N-(6-methoxypyridin-2-yl)-2-(1-methyl-1H-imidazol-2-yl)-5-phenylpyrrolo[2,1-f][1,2,4]triazin-4-amine]	0 (0 = 0% inhibition)	75 to 100%	0 (0 = 0% inhibition)	A (A = 1-25% inhibition)	1 to 25%	0 (0 = 0% inhibition)	A (A = 1-25% inhibition)
